Results reported in publication PMC12073635, “Synthesis of Tricyclic and Tetracyclic Lactone Derivatives of Thieno[2,3-b]pyrazine or Thieno[2,3-b]quinoline: Preliminary Antitumor and Antiparasitic Activity Evaluation” (Molecules, 2025).
pIC50: −log10 of the molar value.

What was measured:
[1] = MTT cytotoxicity in THP-1-derived macrophages; type: cell-based, human; conditions: human, THP-1-derived macrophages (PMA-differentiated); MTT, 72 h, tested 100 to 12.5 μM; read-out: CC50 Interval in THP-1-Derived Macrophages
In short: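 THP-1 cells differentiated into macrophages with 40 ng/mL PMA for 24 h plus 24 h in fresh medium, then exposed to compounds at 100 to 12.5 μM for 72 h at 37 °C, 5% CO2. Viability by MTT (0.5 mg/mL, 4 h), absorbance 570 nm; CC50 by non-linear regression, at least three independent experiments.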

[2] = system: L. infantum MHOM/MA/67/ITMAP-263 promastigotes; test: Resazurin-based assay against L. infantum promastigotes; type: cell-based, Leishmania infantum; conditions: Leishmania infantum, 72 h, dose-response
Procedure: The antiparasitic activity of compounds 2c–g, 3a, 5a and 7 was evaluated at a single concentration of 20 μM, against Trypanosoma brucei (T. brucei) and Leishmania infantum (L. infantum) promastigotes. The results are shown in Table 9 together with the cytotoxicity data (CC50) in THP-1–derived macrophages cells.
L. infantum MHOM/MA/67/ITMAP-263 promastigotes forms were grown at 27 °C, in complete RPMI-1640 medium supplemented with 10% heat-inactivated Fetal Bovine Serum (FBS), 2 mM L-glutamine, 100 UI/mL penicillin/streptomycin, 20 mM HEPES. Parasites maintenance was performed in T25 non-ventilated flasks by subpassage at a concentration of 1 × 10^6/mL every 5 days on T25 non-ventilated flasks.
The compounds’ efficacy against L. infantum promastigotes was evaluated using a resazurin-based assay. Parasites were added to 100 µL of serial dilutions of compounds in supplemented complete medium at a cell density of 5 × 10^5/mL. As a quality control, a dose–response curve to the antileishmanial drug miltefosine was included in all the assays. The final volume of the assay was 200 µL/well. Each condition was carried out in duplicate. Following 72 h of incubation at the specific conditions for L. infantum, 20 µL of a 0.5 mM resazurin solution was added, and the plates were incubated for a further 4 h under the same conditions. The methodology to obtain the results was the same described in Section 3.2.2. for T. brucei.

pIC50 [2]: 4.80
SMILES: COC(=O)c1sc2nccnc2c1C#Cc1ccccn1 [Compound 2f, Methyl 7-(pyridin-2-ylethynyl)thieno[2,3-b]pyrazine-6-carboxylate]
CC50 at 72 h [1]: 25 to 100 µM
